Measured values reported in article PMC11528320, “S-MGBs bearing amidine tail groups are potent, selective antiplasmodial agents” (RSC Medicinal Chemistry, 2024).
Where two headings read alike, the source gives them in different places.

What was measured:
P. falciparum 3D7 = test: in vitro asexual P. falciparum imaging assay, 3D7 strain; format: cell-based
Experimental: (§1) The antiplasmodial in vitro assay was performed as previously described.[13] In brief, P. falciparum parasites (3D7 and Dd2 strains) were grown in RPMI-1640 medium supplemented with 25 mM HEPES, 5% AB human male serum, 2.5 mg mL^−1 Albumax II, and 0.37 mM hypoxanthine. Parasites were subjected to two rounds of sorbitol synchronization prior to compound addition. Ring stage parasites were incubated with compounds in 384-well imaging CellCarrier microplates, for 72 h at 37 °C, 90% N2, 5% CO2, 5% O2, parasites stained with 4′,6-diamidino-2-phenylindole (DAPI) and imaged using an Opera QEHS microplate confocal imaging system (PerkinElmer). Images were analysed as previously described,[13] and raw data normalized using the in-plate positive and negative controls to obtain percent inhibition, used to calculate IC50 values, through a four-parameter logistic curve fitting in Prism (GraphPad).

P. falciparum Dd2 = test: in vitro asexual P. falciparum imaging assay, Dd2 strain; format: cell-based
Experimental: as §1

HEK293 cells = test: HEK293 cell viability (resazurin) assay; format: cell-based, Human; settings: for IC50 / inhibition at 80 µM: Homo sapiens; for IC50: HEK293, 72 h; for SI, HEK293/3D7: ratio of HEK293 IC50 (or relative IC50) to P. falciparum 3D7 IC50; for inhibition at 80 µM: HEK293, 72 h
Experimental: Cell viability was assessed using a minor modification of the protocol previously described.[14] Human embryonic kidney cells (HEK293) were maintained in Dulbecco's modified Eagle's medium supplemented with 10% foetal bovine serum.

[1] = ratio of Dd2 IC50 to 3D7 IC50 (cross-resistance)
[2] = Plasmodium falciparum, 3D7, 72 h; read-out: 3D7 IC50
[3] = Plasmodium falciparum, DD2, 72 h; read-out: Dd2 IC50

| SMILES | IC50 (P. falciparum 3D7; Plasmodium falciparum, 3D7, 72 h, read-out: 3D7 IC50) [nM] | IC50 (P. falciparum Dd2; Plasmodium falciparum, DD2, 72 h, read-out: Dd2 IC50) [nM] | Dd2/3D7 (P. falciparum Dd2; [1]) | IC50 (P. falciparum 3D7; [2]) [nM] | IC50 (HEK293 cells) [nM] | SI, HEK293/3D7 (HEK293 cells) | IC50 (P. falciparum Dd2; [3]) [nM] | inhibition at 80 µM (HEK293 cells) [%] |
| --- | --- | --- | --- | --- | --- | --- | --- | --- |
| CCN(CC)CCCC(C)Nc1ccnc2cc(Cl)ccc12 (stereo not drawn) [Chloroquine, chloroquine, reference compound] | 31.3 ± 9.7 | 225 ± 84.4 | 7.2 |  |  |  |  |  |
| COc1ccc(C[C@H](N)C(=O)N[C@H]2[C@@H](O)[C@H](n3cnc4c(N(C)C)ncnc43)O[C@@H]2CO)cc1 [Puromycin, puromycin, reference compound] |  |  | 1.2 | 41.9 ± 7.2 | 378 | 9 | 49.3 ± 3.5 |  |
| CCc1nc(N)nc(N)c1-c1ccc(Cl)cc1 [Pyrimeth-amine, pyrimethamine, reference compound] |  |  |  | 2.69 ± 0.26 | 3980 | 1478 | > 80000 |  |
| COc1ccc2nc3cc(Cl)ccc3c(Nc3cc(CN4CCCC4)c(O)c(CN4CCCC4)c3)c2n1 [Pyronaridine, pyronaridine, reference compound] |  |  | 1.3 | 26.7 ± 3.8 | 3050 | 114 | 33.3 ± 6.1 |  |
| COc1cccc(/C=C/c2ccc(C(=O)Nc3cc(C(=O)Nc4cc(C(=O)NCCCN(C)C)n(C)c4)n(C)c3)cc2)c1.O=C(O)C(F)(F)F [S-MGB-131] |  |  | 1.3 | 200 |  |  | 254.4 ± 0.2 | 101 |
| Cn1cc(NC(=O)c2cc(NC(=O)c3ccc(/C=C/c4ccc(C(F)(F)F)cc4)cc3)cn2C)cc1C(=O)NCCN1CCOCC1.O=C(O)C(F)(F)F [S-MGB-176] |  |  | 1.6 | 756 ± 0.8 |  | >53 | 1236 ± 3 | 80 |
| Cn1cc(NC(=O)c2cc(NC(=O)c3ccc(/C=C/c4ccc5nsnc5c4)cc3)cn2C)cc1C(=O)NCCN1CCOCC1.O=C(O)C(F)(F)F [S-MGB-188] |  |  | 1.1 | 57 ± 0.1 |  | >193 | 61.9 ± 0.3 | 86 |
| CC(C)n1cc(NC(=O)c2cc(NC(=O)c3ccc(/C=C/c4cnc5ccccc5c4)cc3)cn2C)cc1C(=O)NCCN1CCOCC1.O=C(O)C(F)(F)F [S-MGB-192] |  |  | 1.1 | 96.3 ± 12.8 | 3190 | 33 | 108 ± 20.6 |  |
| CN(C)c1ccc(/C=C/c2ccc(C(=O)Nc3cc(C(=O)Nc4cc(C(=O)NCCN5CCOCC5)n(C)c4)n(C)c3)cn2)cc1.O=C(O)C(F)(F)F [S-MGB-245] |  |  | 1.1 | 161 ± 0.5 | 2750 | 17 | 169.1 ± 0.5 |  |
| CN(C)CCNC(=O)c1cc(NC(=O)c2cc(NC(=O)c3ccc(/C=C/c4ccc(N(C)C)cc4)nc3)cn2C)cn1C.O=C(O)C(F)(F)F [S-MGB-246] |  |  | 1.2 | 43 ± 0.6 | 3860 | 90 | 53 ± 0.4 |  |
| COc1cccc(/C=C/c2ccc(C(=O)Nc3cc(C(=O)Nc4cc(C(=O)NCCN(C)C)n(C)c4)n(C)c3)cc2)c1.O=C(O)C(F)(F)F [S-MGB-247] |  |  | 1.3 | 108.9 ± 0.2 |  | >183.7 | 138.6 ± 0.2 | 100 |
| CN(C)CCNC(=O)c1cc(NC(=O)c2cc(NC(=O)c3ccc(/C=C/c4cnc5ccccc5c4)cc3)cn2C)cn1C.O=C(O)C(F)(F)F [S-MGB-248] |  |  | 1.7 | 33.4 ± 0.7 | 3130 | 94 | 57 ± 0.6 |  |
| CC(C)CCn1cc(NC(=O)c2cc(NC(=O)c3cc(NC(=N)c4cc5ccccc5cn4)cn3C)cn2C)cc1C(=O)NCCCN(C)C.O=C(O)C(F)(F)F [S-MGB-330] |  |  | 1.6 | 407.7 ± 0.1 |  | >98.1 | 636.1 ± 0.4 | 100 |
| CN(C)CCCNC(=O)c1cc(NC(=O)c2cc(NC(=O)c3cc(NC(=N)c4cc5ccccc5cn4)cn3C)cn2C)cn1C.O=C(O)C(F)(F)F [S-MGB-337] |  |  | 1.1 | 95.6 |  | >219.7 | 101.8 ± 0.2 | 101 |
| Cn1cc(NC(=O)c2cc(NC(=O)c3ccc(/C=C/C(=O)Nc4ccccc4O)cc3)cn2C)cc1C(=O)NCCC(=N)N.O=C(O)C(F)(F)F [S-MGB-361] |  |  | 0.9 | 633.9 ± 0.2 |  | >63.1 | 558.5 ± 0.4 | 90 |
| COc1ccc(/C=C/c2ccc(C(=O)Nc3cc(C(=O)Nc4cc(C(=O)NCCC(=N)N)n(C)c4)n(C)c3)cc2)cc1.O=C(O)C(F)(F)F [S-MGB-367] |  |  |  | 367.3 ± 0.9 |  | >108.9 | 620.3 ± 0.3 | 81 |
| CC(C)CCc1sc(NC(=O)c2cc(NC(=O)c3ccc(/C=C/c4ccc(F)cc4)nc3)cn2C)nc1C(=O)NCCCN(C)C.O=C(O)C(F)(F)F [S-MGB-376] |  |  | 0.9 | 147.2 ± 1.4 | 9100 | 62 | 135 ± 1.6 |  |
| CC(C)CCc1sc(NC(=O)c2cc(NC(=O)c3ccc(/C=C/c4ccc(C(F)(F)F)cc4)cc3)cn2C)nc1C(=O)NCCCN(C)C.O=C(O)C(F)(F)F [S-MGB-377] |  |  | 1.4 | 73.1 ± 4.7 | 4300 | 59 | 105 ± 6.3 |  |
| CC(C)CCc1sc(NC(=O)c2cc(NC(=O)c3ccc(/C=C/c4cccc(F)c4)cc3)cn2C)nc1C(=O)NCCCN(C)C.O=C(O)C(F)(F)F [S-MGB-378] |  |  | 1.1 | 150 ± 4 | 10500 | 70 | 171 ± 2.9 |  |
| CC(C)CCc1sc(NC(=O)c2cc(NC(=O)c3ccc(/C=C/c4ccc(F)cc4)cc3)cn2C)nc1C(=O)NCCCN(C)C.O=C(O)C(F)(F)F [S-MGB-379] |  |  | 1.0 | 150 ± 2.7 | 8340 | 56 | 148 ± 5.4 |  |
| CC(C)CCc1sc(NC(=O)c2cc(NC(=O)c3ccc(/C=C/c4cccc(C(F)(F)F)c4)nc3)cn2C)nc1C(=O)NCCCN(C)C.O=C(O)C(F)(F)F [S-MGB-380] |  |  | 1.1 | 74.7 ± 2.8 | 8200 | 110 | 83.9 ± 3.6 |  |
| CC(C)CCc1sc(NC(=O)c2cc(NC(=O)c3cc(NC(=O)c4cccc(F)c4)cn3C)cn2C)nc1C(=O)NCCCN(C)C.O=C(O)C(F)(F)F [S-MGB-386] |  |  | 0.8 | 254.9 ± 1.2 |  | >157 | 207.1 ± 1.3 | 101 |
| Cn1cc(NC(=O)c2cc(NC(=O)c3ccc(NC(=O)c4ccc(F)cc4)cc3)cn2C)cc1C(=O)NCCC(=N)N.O=C(O)C(F)(F)F [S-MGB-388] |  |  | 1.3 | 181 ± 2.2 |  | >192.9 | 228.6 ± 2 | 93 |
| Cn1cc(NC(=O)c2cc(NC(=O)c3ccc(NC(=O)c4cccc(F)c4)cc3)cn2C)cc1C(=O)NCCC(=N)N.O=C(O)C(F)(F)F [S-MGB-389] |  |  | 0.6 | 857.5 ± 1.3 |  | >46.6 | 488 ± 1.8 | 92 |
| Cn1cc(NC(=O)c2cc(NC(=O)c3ccc(/C=C/c4ccc(F)cc4)cc3)cn2C)cc1C(=O)NCCC(=N)N.O=C(O)C(F)(F)F [S-MGB-390] |  |  | 1.2 | 532.6 ± 0.9 |  | >75.1 | 640.2 ± 0.6 | 78 |
